pKi: −log10 of the molar value.
How the values were obtained:
[1] = system: CCI rats (thermal hyperalgesia); conditions: oral, three times daily for 5 days
[2] = molecular target: T1, NMDA receptor glycine site (Rattus norvegicus, UniProt P35439); experiment: Test A: Inhibition of binding of [3H]-MDL105,519 to brain membranes; conditions: inhibition of 1.2 nM [3H]MDL105,519 binding to brain membranes; rat or human membranes not specified
T1 construct: The rat brain membranes used in the experiments were obtained from Analytical Biological Services Inc; tissue Analytical Biological Services Inc; host or cells: rat brain membranes (cerebral cortex and hippocampus, Sprague Dawley)
Description: Test A: Inhibition of Binding of [^3H]-MDL105,519:
Binding of compounds to the NMDA receptor glycine site may be assessed by measuring the ability of test compounds to inhibit the binding of tritiated MDL105,519 to brain membranes bearing the receptor.
Rat Brain Membranes: The rat brain membranes used in the experiments were obtained from Analytical Biological Services Inc., and were prepared substantially in accordance with the method of B. M. Baron et al., J. Pharmacol. Exp. Ther. 250, 162 (1989). Briefly, fresh brain tissue including cerebral cortex and hippocampus from […] Sprague Dawley rats was homogenized in 0.32 M sucrose and centrifuged at low speed to separate cellular membranes from other cellular components. The membranes were then washed 3 times using deionized water, followed by treatment with 0.04% Triton X-100. Finally, membranes were washed six times in 50 mM Tris citrate buffer, pH 7.4, and frozen at −80° C. until use.
[^3H]MDL105,519 (72 Ci/mmol) was purchased from Amersham. Cold MDL105,519 was purchased from Sigma/RBI. Binding assays were performed substantially in accordance with the protocol of B. M. Baron et al., J. Pharmacol. Exp. Ther. 279, 62 (1996), as follows. On the day of the experiment, brain membranes were thawed at room temperature and suspended in 50 mM tris acetate buffer, pH 7.4 (“TAB”). Seventy-five micro grams per milliliter protein (by using the BioRad dye) were used for competition binding. The experiments were carried out using 96-well plates. Membranes were incubated with 20 μL of compounds of various concentrations and 1.2 nM [^3H]MDL105,519 for 30 minutes at room temperature in a total volume of 250 μL. Non specific binding was determined by using 100 μM of unlabeled MDL105,519. The unlabeled MDL105,519 and compounds were dissolved as 12.5 mM stock solutions in DMSO. Final DMSO concentration in each well was kept below 1%, which concentration was found not to alter the binding results. After incubation, unbound [^3H]MDL105,519 was removed by filtration onto GF/B Unifilter plates using a Packard harvester. Filters were washed four times with ice cold TAB (total of 1.2 mL buffer). The plates were dried overnight at room temperature and bound radioactivity was measured on a Packard TopCount after the addition of 45 μL per well of the MICROSCINT O.
Human Brain Membranes: Human brain membranes were obtained from Analytical Biological Services Inc., and assays were performed as described for rat membranes.
Data analysis: Data was analyzed using a Microsoft Excel spreadsheet and GraphPad Prizm software and potency of compounds is expressed as the Ki (nM).

| pKi [2] | melting point | Compound | Test C % Inh. (percent decrease of hyperalgesia at MED) ([1]; at the MED, versus vehicle-treated animals) | Test C MED (minimum effective dose) ([1]; dose giving statistically significant decrease in hyperalgesia) |
| --- | --- | --- | --- | --- |
| 6.25 | > 300 °C | O=c1c2ccc(Cl)cc2[nH]c2c(O)nn(C3CCOc4ccccc43)c(=O)c12 (racemic) [Ex. 2, (+/−)-7-Chloro-4-hydroxy-2-(chroman-4-yl)-1,2,5,10-tetrahydropyridazino[4.5-b]quinoline-1.10-dione] | – | – |
| 6.29 | > 300 °C | O=c1c2ccc(Cl)cc2[nH]c2c(O)nn(C3CCCc4sccc43)c(=O)c12 (racemic) [Ex. 3, (+/−)-7-Chloro-4-hydroxy-2-(4,5,6,7-tetrahydrobenzo[b]thien-4-yl)-1,2,5,10-tetrahydropyridazino[4,5-b]quinoline-1.10-dione] | – | – |
| 6.14 | > 300 °C | O=c1c2ccc(Cl)cc2[nH]c2c(O)nn(C3CCCc4ccccc43)c(=O)c12 (racemic) [Ex. 4, (+/−)-7-Chloro-4-hydroxy-2-(1,2,3,4-tetrahydronaphth-1-yl)-1.2,5,10-tetrahydropyridazino[4,5-b]quinoline-1,10-dione] | – | – |

| Compound | pKi [2] | melting point | Test C % Inh. (percent decrease of hyperalgesia at MED) ([1]; at the MED, versus vehicle-treated animals) | Test C MED (minimum effective dose) ([1]; dose giving statistically significant decrease in hyperalgesia) |
| --- | --- | --- | --- | --- |
| O=c1c2ccc(Cl)cc2[nH]c2c(O)nn(C3CCSc4ccccc43)c(=O)c12 (racemic) [Ex. 1, (+/−)-7-chloro-4-hydroxy-2-(2H,3H,4H-Benzo[e]thian-4-yl)-1,2,5,10-tetrahydropyridazino[4,5-b]quinoline-1,10-dione] | 6.39 | – | 56% | 30 mg/kg/day |
